{"source": "patent US20100048682A1", "about": "“INHIBITING DNA POLYMERASE BETA TO ENHANCE EFFICACY OF ANTICANCER AGENTS” (UNIVERSITY OF PITTSBURGH - OF THE COMMONWEALTH SYSTEM OF …, priority 2005, published 2010)", "key": {"Wt cells (92TAg)": {"system": "Wt cells (92TAg)", "assay": "TMZ growth inhibition assay (modified MTT, MTS)", "type": "cell-based", "details": "Mus musculus, TMZ exposure 48 hr", "procedure": "(§1) Culture Conditions and Cell Cytotoxicity Assays. Transformed MEFs were cultured at 37° C. in a humidified incubator with 10% CO2 in DMEM supplemented with 10% fetal bovine serum, penicillin (50 units/ml), streptomycin (50 μg/ml) and Glutamax (4 mM). Human embryonic kidney cells (293T) were cultured similarly in DMEM supplemented with 10% fetal bovine serum, penicillin (50 units/ml), streptomycin (50 μg/ml) and Glutamine (4 mM). TMZ, MMS and MMC induced cytotoxicity was determined by growth inhibition assays. Briefly, cells were seeded in 96-well dishes at 1250 cells/well. After 24 hours, cells (quadruplicate wells) were exposed to serial dilutions of damaging agent in growth media for 1-2 hours (or as indicated in the text) at 37° C. Drug-containing medium was replaced with fresh medium and the plates were incubated at 37° C. for 48 hours at which point the total cell number was determined by a modified MTT assay (MTS; Promega). Metabolically active cells were quantified by the bioreduction of the MTS tetrazolium compound by recording absorbance at 490 nm using a microplate reader. Results were calculated from the average of four separate experiments and are reported as the % of treated cells relative to the cells in control wells (% Control)."}, "[1]": {"system": "Wt pol-β knockdown cells over-expressing hAag (wt hAag.2/polβ-KD.4, wt hAag.3/polβ-KD.4)", "assay": "TMZ growth inhibition assay (modified MTT, MTS)", "type": "cell-based, mouse", "details": "for IC50: Mus musculus", "description": "Cell Lines and Transfection Conditions. Transformed MEF cell lines (92TAg, Wt; 88TAg, pol-β null; 308TAg, Aag null and 283TAg, pol-β null/Aag null) have been described previously and are available from the ATCC. 293T cells were a gift from J. O'Bryan (NIEHS, NIH). Primary cultures of pol-λ, null MEFs were a kind gift from C.A. Reynaud (Faculte de Medecine Necker-Enfants Malades, Paris, France). The pol-ι null MEFs were derived from C129SvJ mice as described previously and identified by PCR to confirm the pol-ι null mutation. These were immortalized by SV40 large T-antigen (370TAg, pol-λ, null; 369TAg, pol-ι null) as described previously. Human Aag over-expressing cell lines were prepared as follows: briefly, 1.5×10^5 cells were seeded into 60 mm dishes and incubated for 24-30 hours at 10% CO2 at 37° C. The Aag expression plasmid (pRS1422) was transfected using FuGene 6 Transfection Reagent (Roche Diagnostic Corp) according to the manufacturer's instructions. Stable cell lines were selected in G418 (600 μg/ml) for 2 weeks, individual clones were amplified and 20 μg of nuclear extract was analyzed by immunoblotting for the expression of human Aag protein and then re-probed for expression of pol-β and PCNA.\nTransfection of the pSuper siRNA plasmids was completed as follows: Briefly, 1.5×10^5 cells were seeded into 60 mm dishes and incubated for 24-30 hours at 10% CO2 at 37° C. […] For transient transfections, cells were lysed 24 hours post transfection by boiling in Laemmli buffer and analyzed by immunoblotting for the expression of the V5-pol-β transgene using anti-V5 (Invitrogen). […] Individual clones were amplified and 20 μg of nuclear extract was analyzed by immunoblotting for the expression of endogenous pol-β protein using the Nucbuster nuclear protein extract reagent (Novagen) and then re-probed for expression of PCNA as a loading control.\nCulture Conditions and Cell Cytotoxicity Assays. […] TMZ, MMS and MMC induced cytotoxicity was determined by growth inhibition assays. […]"}, "[2]": {"system": "MDA-MB-231 cells with Mpg/Aag over-expression combined with pol-β knockdown", "assay": "Temozolomide growth inhibition assay (MTS)", "type": "cell-based, human", "details": "TMZ 48 hours; compared to the parental MDA-MB-231 cells", "procedure": "Culture Conditions and Cell Cytotoxicity Assays. Human Mpg over-expression, human pol-β knockdown and human pol-β over-expressing MDA-MB-231 breast cancer cell lines were cultured at 37° C. in a humidified incubator with 5% CO2 in RPMI 1640 (Cambrex Biosciences Group, Walkersville, Md.) supplemented with 10% heat inactivated fetal bovine serum and gentamicin (10 μg/ml). Temozolomide induced cytotoxicity was determined by growth inhibition assays. Briefly, cells were seeded in 96-well dishes at 2000 cells/well. After 24 hours, cells (quadruplicate wells) were exposed to serial dilutions of Temozolomide in growth media at 37° C. for 48 hours at which point the total cell number was determined by a modified 3-(4,5-dimethylthiazol-2-yl)-2,5-diphenyltetrazolium bromide (MTT) assay (MTS; Promega Madison, Wis.) (Cory et al., Cancer Communications; 3(7):207-12 (1991)). Metabolically active cells were quantified by the bioreduction of the MTS tetrazolium compound by recording absorbance at 490 nm using a microplate reader. Results were calculated from the average of four separate experiments and are reported as the % of treated cells relative to the cells in control wells (% Control)."}, "pol-β null cells (88TAg)": {"system": "pol-β null cells (88TAg)", "assay": "Growth inhibition assay (modified MTT, MTS)", "type": "cell-based, mouse", "details": "MTS viability 48 hr after 1-2 hr exposure", "procedure": "as §1"}, "γ-H2AX": {"system": "γ-H2AX", "assay": "γ-H2AX immunoblotting", "type": "cell-based, mouse", "details": "MMS 1 hr or TMZ 2 hr exposure", "procedure": "For γ-H2AX immunoblotting, protein was prepared as follows: briefly, 6×10^5 cells were seeded into 150 mm dishes and incubated for 24 hours at 10% CO2 at 37° C. Cells were treated with MMS and TMZ for 1 or 2 hr respectively, and whole cells were scraped from the plates in 1×PBS, washed, and immediately placed on dry ice. Thawed pellets were re-suspended in a 1:1 ratio of RIPA buffer and Laemmli buffer. Samples were boiled for 5 minutes and protein from an equal cell number was added to each well. Protein was separated by electrophoresis in a 12% SDS-polyacrylamide gel and electro-transferred to a […] nitrocellulose membrane (Trans-Blot, Bio-Rad). Membranes were blocked for 20 minutes in a 3% dried milk/TBS solution at room temperature and incubated with 0.5-1 μg/ml of anti-phospho-H2AX (Serine 139) (Upstate) prepared in TBS/3% dried milk and 0.1% Tween20 over night at 4° C. Membranes were washed twice with water and incubated with horseradish peroxidase (HRP)-conjugated secondary antibody (goat anti-rabbit HRP; Bio-Rad) at room temperature for 1.5 hour. Following a series of washes with water and TBS, HRP activity was detected using the Super Signal West Femto reagent (Pierce). Each membrane was re-probed with anti-PCNA to correct for differences in protein loading, and densitometry was used to quantitate with Quantity One 1-D analysis software (BioRad)."}}, "data": [{"smiles": "Cn1nnc2c(C(N)=O)ncn2c1=O", "note": "[TMZ, temozolomide]", "values": [{"measurement": "IC50", "setting": "Wt cells (92TAg)", "result": 2600, "unit": "µM"}, {"measurement": "IC50", "setting": "[1]; TMZ exposure 2 hr, viable cells after 48 hr, wt hAag.2/polβ-KD.4 and wt hAag.3/polβ-KD.4 cells", "result": 1250, "unit": "µM"}, {"measurement": "IC50", "setting": "[1]; TMZ exposure 48 hr, wt hAag.3/Polβ-KD.4 cells", "result": "~700", "unit": "µM"}, {"measurement": "TMZ efficacy improved", "setting": "[1]; TMZ exposure 48 hr, hAag over-expression plus pol-β knockdown compared with Wt cells", "result": "~4", "unit": "fold"}, {"measurement": "decrease in IC50", "setting": "[2]", "result": "~10", "unit": "fold"}]}, {"smiles": "CO[C@@]12[C@H](COC(N)=O)C3=C(C(=O)C(C)=C(N)C3=O)N1C[C@@H]1N[C@@H]12", "note": "[MMC, Mitomycin C]", "values": [{"measurement": "sensitivity of pol-β null cells relative to Wt and other null cells", "setting": "pol-β null cells (88TAg)", "result": "equally sensitive"}]}, {"smiles": "COS(C)(=O)=O", "note": "[MMS, Methyl methanesulfonate]", "values": [{"measurement": "γ-H2AX expression in pol-β deficient cells as compared to Wt cells", "setting": "γ-H2AX", "result": "clear increase"}]}]}
